Key:
[1] = target: T1, α7-subtype of nicotinic receptors (Rattus norvegicus, UniProt Q05941); assay: biochemical; conditions: read-out: Inhibition of 3H-α-Bungarotoxine Binding IC50
T1 construct: Cerebral cortices from male Wistar rats (150-250 g) are homogenised; from tissue; host or cells: rat cerebral cortex membrane homogenate
T1 sequence (Q05941 23-502): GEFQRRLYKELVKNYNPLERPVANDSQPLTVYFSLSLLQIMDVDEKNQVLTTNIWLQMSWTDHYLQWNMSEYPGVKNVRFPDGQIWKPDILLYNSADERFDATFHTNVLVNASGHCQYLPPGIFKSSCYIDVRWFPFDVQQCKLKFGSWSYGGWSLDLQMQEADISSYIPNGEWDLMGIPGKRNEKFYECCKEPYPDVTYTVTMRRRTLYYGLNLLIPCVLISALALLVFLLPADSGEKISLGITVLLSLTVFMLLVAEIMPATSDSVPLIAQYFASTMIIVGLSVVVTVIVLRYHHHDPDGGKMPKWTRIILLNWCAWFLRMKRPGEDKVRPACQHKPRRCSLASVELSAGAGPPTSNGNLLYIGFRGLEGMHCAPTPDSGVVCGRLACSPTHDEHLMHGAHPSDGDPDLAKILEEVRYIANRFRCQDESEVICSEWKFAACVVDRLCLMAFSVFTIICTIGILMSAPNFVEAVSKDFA

| SMILES | melting point [°C] | IC50 [1] [nM] |
| --- | --- | --- |
| O=C(O)/C=C/C(=O)O.O=C(Oc1ccc(C#Cc2ccccc2)cc1)N1CCN2CCC1CC2 [Compound A1, 1,4-Diaza-bicyclo[3.2.2]nonane-4-carboxylic acid 4-phenylethynyl-phenyl ester fumaric acid salt] | 160 to 177 | 420 |
| Cl.O=C(Nc1ccc(OC(=O)N2CCN3CCC2CC3)cc1)c1ccccc1 [Compound C1, 1,4-Diaza-bicyclo[3.2.2]nonane-4-carboxylic acid 4-benzoylamino-phenyl ester hydrochloric acid salt] | > 270 | 560 |

Source: patent publication US20090075983A1 (priority 2006, published 2009)
